The target in assay [1] is human GLP-1R (Homo sapiens, UniProt P43220, G168S). Description: CHO GLP-1R Clone H6 - Assay 1 (HTRF cAMP agonist assay). It is filed as cell-based. The following applies: for EC50: CHO GLP-1R Clone H6, cAMP HTRF, geometric mean.
Assay [2] concerns the target human GLP-1R (Homo sapiens (Human), UniProt P43220, L260F). The assay can be described thus: CHO GLP-1R Clone C6 - Assay 2 (HTRF cAMP agonist assay, low receptor density). Particulars: for Emax: read-out: Assay 2 Emax (%), CHO GLP-1R Clone C6 (low receptor density).
Procedure: CHO GLP-1R Clone C6—Assay 2
GLP-1R-mediated agonist activity was determined with a cell-based functional assay utilizing an HTRF (Homogeneous Time-Resolved Fluorescence) cAMP detection kit (cAMP HI Range Assay Kit; Cis Bio cat #62AM6PEJ) that measures cAMP levels in the cell. The method is a competitive immunoassay between native cAMP produced by the cells and exogenous cAMP labeled with the dye d2. The tracer binding is visualized by a mAb anti-cAMP labeled with Cryptate. The specific signal (i.e. energy transfer) is inversely proportional to the concentration of cAMP in either a standard or an experimental sample.
The human GLP-1R coding sequence (NCBI Reference Sequence NP_002053.3, including naturally-occurring variant Leu260Phe) was subcloned into pcDNA5-FRT-TO and a clonal CHO cell line stably expressing a low receptor density was isolated using the Flp-In™ T-Rex™ System, as described by the manufacturer (ThermoFisher).
Cells were removed from cryopreservation, re-suspended in 40 mL of Dulbecco's Phosphate Buffered Saline (DPBS—Lonza Cat #17-512Q) and centrifuged at 800×g for 5 minutes at 22° C. The DPBS was aspirated, and the cell pellet was re-suspended in 10 mL of complete growth medium (DMEM:F12 1:1 Mixture with HEPES, L-Gln, 500 mL (DMEM/F12 Lonza Cat #12-719F), 10% heat inactivated fetal bovine serum (Gibco Cat #16140-071), 5 mL of 100× Pen-Strep (Gibco Cat #15140-122), 5 mL of 100×L-Glutamine (Gibco Cat #25030-081), 700 μg/mL Hygromycin (Invitrogen Cat #10687010) and 15 μg/mL Blasticidin (Gibco Cat # R21001). A 1 mL sample of the cell suspension in growth media was counted on a Becton Dickinson ViCell to determine cell viability and cell count per mL. The remaining cell suspension was then adjusted with growth media to deliver 1600 viable cells per well using a Matrix Combi Multidrop reagent dispenser, and the cells were dispensed into a white 384 well tissue culture treated assay plate (Corning 3570). The assay plate was then incubated for 48 hours at 37° C. in a humidified environment (95% O2, 5% CO2)
Varying concentrations of each compound to be tested (in DMSO) were diluted in assay buffer [HBSS with Calcium/Magnesium (Lonza/BioWhittaker cat #10-527F)/0.1% BSA (Sigma Aldrich cat # A7409-1L)/20 mM HEPES (Lonza/BioWhittaker cat #17-737E)] containing 100 μM 3-isobutyl-1-methylxanthin (IBMX; Sigma cat #15879). The final DMSO concentration in the compound/assay buffer mixture is 1%.
After 48 hours, the growth media was removed from the assay plate wells, and the cells were treated with 20 μL of the serially diluted compound in assay buffer for 30 minutes at 37° C. in a humidified environment (95% O2, 5% CO2). Following the 30 minute incubation, 10 μL of labeled d2 cAMP and 10 μL of anti-cAMP antibody (both diluted 1:20 in cell lysis buffer; as described in the manufacturer's assay protocol) were added to each well of the assay plate. The plates were then incubated at room temperature and after 60 minutes, changes in the HTRF signal were read with an Envision 2104 multi-label plate reader using excitation of 330 nm and emissions of 615 and 665 nm. Raw data were converted to nM cAMP by interpolation from a cAMP standard curve (as described in the manufacturer's assay protocol) and the percent effect was determined relative to a saturating concentration of the full agonist GLP-1 (1 μM) included on each plate. EC50 determinations were made from agonist dose response curves analyzed with a curve fitting program using a 4-parameter logistic dose response equation.
[3] abbreviates: CHO GLP-1R Clone H6, arithmetic mean, relative to saturating GLP-1 (1 μM).
[4] abbreviates: Assay 2 EC50 (nM), CHO GLP-1R Clone C6 (low receptor density), cAMP HTRF, geometric mean.
Where [5] appears, read: read-out: Assay 2 EC50, CHO GLP-1R Clone C6 (low receptor density), cAMP HTRF, geometric mean.
[6] abbreviates: arithmetic mean, relative to saturating GLP-1 (1 μM).
[7] abbreviates: EC50 in Assay 2, CHO GLP-1R Clone C6, cAMP, geometric mean of replicates.

The structures appear in SMILES notation. Read-outs that look alike come from different tables or passages of the source.

Sequence of human GLP-1R (Homo sapiens (Human), UniProt P43220, L260F) (P43220 24-463 L260F): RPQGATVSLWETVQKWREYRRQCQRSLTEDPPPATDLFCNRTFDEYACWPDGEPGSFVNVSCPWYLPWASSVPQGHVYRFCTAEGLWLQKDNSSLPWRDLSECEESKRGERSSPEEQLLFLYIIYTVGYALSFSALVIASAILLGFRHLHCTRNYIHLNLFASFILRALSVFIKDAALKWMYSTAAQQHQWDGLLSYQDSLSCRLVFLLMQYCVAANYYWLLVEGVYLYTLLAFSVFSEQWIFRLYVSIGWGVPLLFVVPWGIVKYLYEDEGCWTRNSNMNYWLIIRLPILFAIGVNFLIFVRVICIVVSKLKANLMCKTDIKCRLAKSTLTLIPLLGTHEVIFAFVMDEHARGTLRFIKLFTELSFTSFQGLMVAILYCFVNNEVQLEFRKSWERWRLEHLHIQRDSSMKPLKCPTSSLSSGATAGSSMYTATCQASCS
Sequence of human GLP-1R (Homo sapiens, UniProt P43220, G168S) (P43220 24-463 G168S limits assumed): as the sequence (P43220 24-463 L260F) above, with G145S, F237L counted along it

For the compound `CC1(c2ccc(C#N)cc2F)Oc2cccc(C3CCN(Cc4nc5ccc(C(=O)O)cc5n4C[C@@H]4CCO4)CC3)c2O1` (single isomer, unassigned) [Example 9], the EC50 on human GLP-1R [1] came out at 73 nM; on human GLP-1R [2] (setting [4]), 1600 nM. In addition, the “Assay 1 Emax (%)” value at human GLP-1R [1] (setting [3]) is 88%. Besides, the “Assay 2 Emax (%)” value at human GLP-1R [2] (CHO GLP-1R Clone C6 (low receptor density), arithmetic mean, relative to saturating GLP-1 (1 μM)) was found to be 90%.

Regarding `CC1(c2ccc(Cl)cc2F)Oc2cccc(C3CCN(Cc4nc5ccc(C(=O)O)cc5n4CCn4cccn4)CC3)c2O1` (stereo not shown) [Example 53, 2-({4-[2-(4-chloro-2-fluorophenyl)-2-methyl-1,3-benzodioxol-4-yl]piperidin-1-yl}methyl)-1-[2-(1H-pyrazol-1-yl)ethyl]-1H-benzimidazole-6-carboxylic acid], the results for the EC50 at human GLP-1R [1] and on human GLP-1R [2] (setting [5]) were 3.1 nM and 52 nM, respectively. Further, the Emax came out at 87% on human GLP-1R [1] (setting [3]) and 84% on human GLP-1R [2] (setting [6]).

Consider `COCCn1c(CN2CCC(c3cccc4c3OC(C)(c3ccc(Cl)cc3F)O4)CC2)nc2ncc(C(=O)O)cc21` (stereo not shown) [Example 3, 2-({4-[2-(4-Chloro-2-fluorophenyl)-2-methyl-1,3-benzodioxol-4-yl]piperidin-1-yl}methyl)-1-(2-methoxyethyl)-1H-imidazo[4,5-b]pyridine-6-Carboxylic Acid], for which the EC50 on human GLP-1R [1] came out at 1.3 nM; on human GLP-1R [2] (setting [5]), 45 nM. For the same compound, the Emax is 94% at human GLP-1R [1] (setting [3]) and 120% on human GLP-1R [2] (setting [6]).

Turning to `CCn1ccnc1Cn1c(CN2CCC(c3cccc4c3OC(C)(c3ccc(Cl)cc3F)O4)CC2)nc2ccc(C(=O)O)cc21` (stereo not shown) [Example 51, 2-({4-[2-(4-chloro-2-fluorophenyl)-2-methyl-1,3-benzodioxol-4-yl]piperidin-1-yl}methyl)-1-[(1-ethyl-1H-imidazol-2-yl)methyl]-1H-benzimidazole-6-carboxylic acid], the EC50 on human GLP-1R [1] stood at 19 nM; on human GLP-1R [2] (setting [5]) it was 280 nM. The Emax was 80% at human GLP-1R [1] (setting [3]) and 81% on human GLP-1R [2] (setting [6]).

With `COCCn1c(CN2CCC(c3cccc4c3OC(C)(c3ccc(F)cc3)O4)CC2)nc2ccc(C(=O)O)cc21` (stereo not shown) [Example 38, 2-({4-[2-(4-fluorophenyl)-2-methyl-1,3-benzodioxol-4-yl]piperidin-1-yl}methyl)-1-(2-methoxyethyl)-1H-benzimidazole-6-carboxylic acid], the EC50 was 10 nM on human GLP-1R [1] and 240 nM on human GLP-1R [2] (setting [5]). The figures for the Emax at human GLP-1R [1] (setting [3]) and on human GLP-1R [2] (setting [6]) were 87% and 73%, respectively.

Turning to `COCCn1c(C2CC23CCN(c2cccc4c2OC(C)(c2ccc(Cl)cc2F)O4)CC3)nc2ccc(C(=O)O)cc21` (single isomer, unassigned) [Example 15, 2-{6-[2-(4-Chloro-2-fluorophenyl)-2-methyl-1,3-benzodioxol-4-yl]-6-azaspiro[2.5]oct-1-yl}-1-(2-methoxyethyl)-1H-benzimidazole-6-carboxylic Acid], the values for the EC50 at human GLP-1R [1] and on human GLP-1R [2] (setting [4]) were over 18000 nM and over 20000 nM, respectively. On human GLP-1R [1] (setting [3]), this compound came in with an Emax of 100%.

Regarding `CCn1cncc1Cn1c(CN2CCC(c3cccc4c3O[C@@](C)(c3ccc(Cl)cc3F)O4)CC2)nc2ccc(C(=O)O)cc21` (single isomer, unassigned) [Example 17, Ammonium 2-({4-[2-(4-chloro-2-fluorophenyl)-2-methyl-1,3-benzodioxol-4-yl]piperidin-1-yl}methyl)-1-[(I-ethyl-1H-imidazol-5-yl)methyl]-1H-benzimidazole-6-carboxylate], the results for the EC50 at human GLP-1R [1] and at human GLP-1R [2] (setting [5]) were 0.079 nM and 1.1 nM, respectively.

On to `CC1(c2ccc(Cl)cc2F)Oc2cccc(C3CCN(Cc4nc5ccc(C(=O)O)nc5n4Cc4ncco4)CC3)c2O1` (stereo not shown) [Example 13, 2-({4-[2-(4-Chloro-2-fluorophenyl)-2-methyl-1,3-benzodioxol-4-yl]piperidin-1-yl}methyl)-3-(1,3-oxazol-2-ylmethyl)-3H-imidazo[4,5-b]pyridine-5-carboxylic Acid], for which the EC50 on human GLP-1R [1] is 4.5 nM; on human GLP-1R [2] (setting [4]), 38 nM. Also, the Emax on human GLP-1R [1] (setting [3]) came out at 95%; on human GLP-1R [2] (setting [6]), 110%.

On to `CC1(c2ccc(Cl)cc2F)Oc2cccc(C3CCN(Cc4nc5ccc(C(=O)O)cc5n4Cc4cnco4)CC3)c2O1` (stereo not shown) [Example 69, 2-({4-[2-(4-chloro-2-fluorophenyl)-2-methyl-1,3-benzodioxol-4-yl]piperidin-1-yl}methyl)-1-(1,3-oxazol-5-ylmethyl)-1H-benzimidazole-6-carboxylic acid], for which the EC50 stood at 10 nM on human GLP-1R [1] and 8.3 nM on human GLP-1R [2] (setting [5]). Further, the Emax on human GLP-1R [1] (setting [3]) was 100%; on human GLP-1R [2] (setting [6]) it was 98%.

With `CC1(c2ccc(Cl)cc2F)Oc2cccc(C3CCN(Cc4nc5ccc(C(=O)O)cc5n4CCO)CC3)c2O1` (stereo not shown) [Example 75, 2-({4-[2-(4-chloro-2-fluorophenyl)-2-methyl-1,3-benzodioxol-4-yl]piperidin-1-yl}methyl)-1-(2-hydroxyethyl)-1H-benzimidazole-6-carboxylic acid], the EC50 was 65 nM on human GLP-1R [1] and 1000 nM on human GLP-1R [2] (setting [5]). The Emax was 82% on human GLP-1R [1] (setting [3]) and 71% on human GLP-1R [2] (setting [6]).

`Cn1cnc(CCn2c(CN3CCC(c4cccc5c4OC(C)(c4ccc(Cl)cc4F)O5)CC3)nc3ccc(C(=O)O)cc32)c1` (stereo not shown) [Example 55, 2-({4-[2-(4-chloro-2-fluorophenyl)-2-methyl-1,3-benzodioxol-4-yl]piperidin-1-yl}methyl)-1-[2-(1-methyl-1H-imidazol-4-yl)ethyl]-1H-benzimidazole-6-carboxylic acid]: the EC50 stood at 74 nM on human GLP-1R [1] and 1100 nM at human GLP-1R [2] (setting [5]). Also, the maximum response (Emax) on human GLP-1R [1] (setting [3]) was determined as 81%; on human GLP-1R [2] (setting [6]), 50%.

Regarding `COCCn1c(CN2CCC(c3cccc4c3OC(C)(c3ccc(C#N)cc3)O4)CC2)nc2ccc(C(=O)O)cc21` (stereo not shown) [Example 34, 2-({4-[2-(4-cyanophenyl)-2-methyl-1,3-benzodioxol-4-yl]piperidin-1-yl}methyl)-1-(2-methoxyethyl)-1H-benzimidazole-6-carboxylic acid], the concentration giving a half-maximal response (EC50) at human GLP-1R [1] turned out to be 7.8 nM; at human GLP-1R [2] (setting [5]), 110 nM. Further, the Emax on human GLP-1R [1] (setting [3]) turned out to be 98%; at human GLP-1R [2] (setting [6]), 88%.

As for `C[C@@]1(c2ccc(Cl)cc2F)Oc2cccc(C3CCN(Cc4nc5ccc(C(=O)O)cc5n4C[C@@H]4CCO4)CC3)c2O1` [Example 6, Ammonium 2-({4-[(2R)-2-(4-chloro-2-fluorophenyl)-2-methyl-1,3-benzodioxol-4-yl]piperidin-1-yl}methyl)-1-[(2S)-oxetan-2-ylmethyl]-1H-benzimidazole-6-carboxylate], the concentration giving a half-maximal response (EC50) stood at 140 nM at human GLP-1R [1], 2400 nM on human GLP-1R [2] (setting [4]) and 2400 nM at human GLP-1R [2] (setting [7]). The Emax at human GLP-1R [1] (setting [3]) and on human GLP-1R [2] (setting [6]) was 89% throughout.

`CC1(c2ccc(Cl)cc2F)Oc2cccc(C3CCN(Cc4nc5ccc(C(=O)O)cc5n4Cc4cocn4)CC3)c2O1` (stereo not shown) [Example 58, 2-({4-[2-(4-chloro-2-fluorophenyl)-2-methyl-1,3-benzodioxol-4-yl]piperidin-1-yl}methyl)-1-(1,3-oxazol-4-ylmethyl)-1H-benzimidazole-6-carboxylic acid]: the figures for the EC50 at human GLP-1R [1] and on human GLP-1R [2] (setting [5]) were 4 nM and 23 nM, respectively. Moreover, the values for the Emax on human GLP-1R [1] (setting [3]) and on human GLP-1R [2] (setting [6]) were 98% and 88%, respectively.

For the compound `CC1(c2ccc(Cl)cc2F)Oc2cccc(C3CCN(Cc4nc5ccc(C(=O)O)cc5n4CC4CCOC4)CC3)c2O1` (stereo not shown) [Example 56, 2-({4-[2-(4-chloro-2-fluorophenyl)-2-methyl-1,3-benzodioxol-4-yl]piperidin-1-yl}methyl)-1-(tetrahydrofuran-3-ylmethyl)-1H-benzimidazole-6-carboxylic acid], the values for the EC50 at human GLP-1R [1] and at human GLP-1R [2] (setting [5]) were 1.2 nM and 11 nM, respectively. Also, the Emax amounted to 87% at human GLP-1R [1] (setting [3]) and 81% at human GLP-1R [2] (setting [6]).

On to `CN(C)C(=O)CCn1c(CN2CCC(c3cccc4c3OC(C)(c3ccc(Cl)cc3F)O4)CC2)nc2ccc(C(=O)O)cc21` (stereo not shown) [Example 59, 2-({4-[2-(4-chloro-2-fluorophenyl)-2-methyl-1,3-benzodioxol-4-yl]piperidin-1-yl}methyl)-1-[3-(dimethylamino)-3-oxopropyl]-1H-benzimidazole-6-carboxylic acid], for which the EC50 was found to be 74 nM at human GLP-1R [1] and 680 nM at human GLP-1R [2] (setting [5]). Moreover, the Emax at human GLP-1R [1] (setting [3]) turned out to be 85%; at human GLP-1R [2] (setting [6]) it was 53%.

On to `COCCn1c(C2CC23CCN(c2cccc4c2OC(C)(c2ccc(Cl)cc2F)O4)CC3)nc2ccc(C(=O)O)cc21` (single isomer, unassigned) [Example 25, 2-{6-[2-(4-chloro-2-fluorophenyl)-2-methyl-1,3-benzodioxol-4-yl]-6-azaspiro[2.5]oct-1-yl}-1-(2-methoxyethyl)-1H-benzimidazole-6-carboxylic acid], for which the EC50 on human GLP-1R [1] and at human GLP-1R [2] (setting [4]) was over 20000 nM throughout.

Turning to `COCCn1c(CN2CCC(c3cccc4c3OC(C)(c3ccc(C)cc3)O4)CC2)nc2ccc(C(=O)O)cc21` (stereo not shown) [Example 84, 1-(2-methoxyethyl)-2-({4-[2-methyl-2-(4-methylphenyl)-1,3-benzodioxol-4-yl]piperidin-1-yl}methyl)-1H-benzimidazole-6-carboxylic acid], the EC50 is 9.1 nM at human GLP-1R [1] and 100 nM at human GLP-1R [2] (setting [5]). The figures for the maximal response (Emax) at human GLP-1R [1] (setting [3]) and at human GLP-1R [2] (setting [6]) were 93% and 86%, respectively.

As to `C[C@]1(c2ccc(Cl)cc2F)Oc2cccc(C3CCN(Cc4nc5ccc(C(=O)O)cc5n4C[C@@H]4CCO4)CC3)c2O1` [Example 7, Ammonium 2-({4-[(2S)-2-(4-chloro-2-fluorophenyl)-2-methyl-1,3-benzodioxol-4-yl]piperidin-1-yl}methyl)-1-[(2S)-oxetan-2-ylmethyl]-1H-benzimidazole-6-carboxylate], the results for the EC50 at human GLP-1R [1], at human GLP-1R [2] (setting [4]) and at human GLP-1R [2] (setting [7]) were 0.26 nM, 3.1 nM and 2.9 nM, respectively. The Emax at human GLP-1R [1] (setting [3]) amounted to 98%; at human GLP-1R [2] (setting [6]) it was 93%.

(Values after US10676465B2, “GLP-1 receptor agonists and uses thereof” (Pfizer Inc., priority 2018, dated 2020).)
